{"source": "patent US20070104811A1", "about": "“Pharmaceutical composition useful for the treatment of prostate cancer” (priority 2005, published 2007)", "key": {"[1]": {"tested_on": "neonatal skeletal muscle cell", "assay": "Cell viability of control cells: neonatal skeletal muscle cell", "format": "cell-based, rat", "conditions": "100 μg/ml M. koenigii + 100 μg/ml T. terrestris, total 200 μg/ml; 96 h", "method": "The skeletal muscles from 2-day-old neonatal rat were isolated by method described previously by William E Russell (1997) with modifications. Briefly, Soleus muscle were dissected, minced and digested with 0.2% Type II Collagenase and 0.05% trypsin in Phosphate buffered Saline (PBS) pH 7.4, 0.15M NaCl. The dispersed skeletal muscle cells were centrifuged (1000 g, 10 minutes) washed and resuspended in Phosphate buffered Saline (PBS) with 1% antibiotic-antimycotic. Cells were preincubated for 30 minutes at 37° C., 95% air/5%CO2. The floating muscle cells were plated on collagen coated T-25 flaks in Dulbecco's modified Eagle Medium enriched with 10% Fetal. Bovine Serum and 1% antibiotic-antimycotic\nViability of PC-3 after treatment as at the indicated times was determined by MTT assay -Cell titre 96 AQoueus One solution Cell Proliferation Assay (Promega, Corp. Madison, Wis.) as per manufacturer's protocol. Briefly, 10,000 cells were plated in triplicate in 96 well plates and incubated for 12 hours in complete media. Compound MK-3 was added as indicated on replacing them to fresh complete media and incubated upto 96 hours for varied time periods. 20 μl per well of cell titre 96 AQoueus One solution reagent. […] Absorbance was recorded at 490 nm with 96 well plate readers. Reference wavelength of 630 nm was used to reduce background contributed by non-specific absorbance due to cell debris."}, "cardiomyocyte": {"tested_on": "cardiomyocyte", "assay": "Cell viability of control cells: neonatal cardiomyocyte", "format": "cell-based, rat", "conditions": "100 μg/ml M. koenigii + 100 μg/ml T. terrestris, total 200 μg/ml; 96 h", "method": "The cardiomyocytes from 2-day-old neonatal rat were isolated by the method previously described by Yoshihiro Kimura (1994) with modifications. Briefly, heart was excised and minced in pre warmed (37° C.) Ads buffer (1.2M NaCl, 198 mM HEPES, 54 mM KCl, 8.3 mM MgSO4, 55.4 mM glucose, 95 mM NaH2PO4), digested in typeII Collagenase 0.05% and Pancreatin in 3-succesive digestions of 15 minutes each. Supernatant was pooled and cells palleted at 2000 g, 10 minutes. Cells were resuspended and plated in collagen coated T-25 flaks in Medium-199 enriched with 10% Fetal Bovine Serum and 1% antibiotic-antimycotic.\n(§1) Viability of PC-3 after treatment as at the indicated times was determined by MTT assay -Cell titre 96 AQoueus One solution Cell Proliferation Assay (Promega, Corp. Madison, Wis.) as per manufacturer's protocol. Briefly, 10,000 cells were plated in triplicate in 96 well plates and incubated for 12 hours in complete media. Compound MK-3 was added as indicated on replacing them to fresh complete media and incubated upto 96 hours for varied time periods. 20 μl per well of cell titre 96 AQoueus One solution reagent. Incubate the plate for 1-4 hours at 37° C. and humidified 5% CO2 atmosphere. Absorbance was recorded at 490 nm with 96 well plate readers. Reference wavelength of 630 nm was used to reduce background contributed by non-specific absorbance due to cell debris."}, "hepatocyte": {"tested_on": "hepatocyte", "assay": "Cell viability of control cells: neonatal hepatocyte", "format": "cell-based, rat", "conditions": "100 μg/ml M. koenigii + 100 μg/ml T. terrestris, total 200 μg/ml; 96 h", "method": "The hepatocytes from 2-day-old neonatal rat were isolated by method described previously by William E Russell (1997) with modifications. Briefly, the livers were perfused through the portal vein with a calcium-free solution consisting of 150 mM NaCl, 2.8 mM KCl, 5.5 mM glucose, and 25 mM HEPES (pH 7.6) for 10 min, followed by mincing and digestion in DMEM containing 0.05% collagenase type IV for 30 minutes. The cells were centrifuged (2000 g, 10 minutes) and dispersed in DMEM enriched with 10% fetal Bovine Serum, 1% antibiotic-antimycotic.\nas §1"}, "[2]": {"assay": "Acute toxicity as per WHO guidelines, haematological parameters", "format": "in vivo, Mice, Balb/C", "conditions": "mahanine 2 gm/kg body weight orally once, 15 days after treatment; vehicle control 92", "method": "(§2) Experiments for acute toxicity are performed as per the guidelines of WHO. Experimental subject: Mice, Balb/C Male, female. 25 gms body weight (approx) 16 mice were divided into 2 groups 8 animals were received the dosage of @2 gm/kg body weight of combined extract. Equal volume of the vehicle (DMSO) were given to 8 animals wherein dose administered orally once and then animals sacrificed and haematological parameters checked 15 days after treatment.\nas §2, with “compound” for “dosage of”, “weight.” for “weight of combined extract.”, “haematological and biochemical” for “haematological”"}}}
{"substance": "mahanine", "values": [{"measurement": "toxic effects / cell death", "setting": "[1]", "value": "no sign of cell death"}, {"measurement": "toxic effects / cell death", "setting": "cardiomyocyte", "value": "no sign of cell death"}, {"measurement": "toxic effects / cell death", "setting": "hepatocyte", "value": "no sign of cell death"}, {"measurement": "WBC", "setting": "[2]", "value": 89}]}
